{"source": "paper PMC12400508", "about": "(RSC Advances, 2025)", "format_in_all_cases": "cell-based, Mycobacterium tuberculosis", "key": {"mc^26230_R1": {"test_system": "mc^26230_R1"}, "mc^26230_R3": {"test_system": "mc^26230_R3"}, "[1]": {"test_system": "mc^26230 overexpressing InhA (pMV261_inhA)", "test": "microbe, parasite or virus in culture", "details": "for fold change between the strain harboring the empty plasmid pMV261 and the strain overexpressing InhA: MIC pMV261_inhA / MIC pMV261; for MIC: Mycobacterium tuberculosis, read-out: MIC, pMV261_inhA"}}, "data": [{"smiles": "Cc1ccccc1/C=C1\\SC(NNC(=O)c2ccncc2)=NC1=O", "note": "[9d]", "values": [{"measurement": "MIC, mc^26230_R1", "setting": "mc^26230_R1", "result": 50, "unit": "µg/mL"}, {"measurement": "fold increase of MIC in the KatG mutated strains versus parental strain", "setting": "mc^26230_R1", "result": 32, "unit": "fold"}, {"measurement": "MIC, mc^26230_R3", "setting": "mc^26230_R3", "result": 50, "unit": "µg/mL"}, {"measurement": "fold change between the strain harboring the empty plasmid pMV261 and the strain overexpressing InhA", "setting": "[1]", "result": 16, "unit": "fold"}, {"measurement": "MIC", "setting": "[1]", "result": 50, "unit": "µg/mL"}]}, {"smiles": "O=C1N=C(NNC(=O)c2ccncc2)S/C1=C\\c1ccc(F)cc1", "note": "[9j]", "values": [{"measurement": "MIC, mc^26230_R1", "setting": "mc^26230_R1", "result": 100, "unit": "µg/mL"}, {"measurement": "fold increase of MIC in the KatG mutated strains versus parental strain", "setting": "mc^26230_R1", "result": 8, "unit": "fold"}, {"measurement": "MIC, mc^26230_R3", "setting": "mc^26230_R3", "result": 100, "unit": "µg/mL"}, {"measurement": "fold change between the strain harboring the empty plasmid pMV261 and the strain overexpressing InhA", "setting": "[1]", "result": 8, "unit": "fold"}, {"measurement": "MIC", "setting": "[1]", "result": 100, "unit": "µg/mL"}]}, {"smiles": "O=C1N=C(NNC(=O)c2ccncc2)S/C1=C\\c1ccccc1F", "note": "[9l]", "values": [{"measurement": "MIC, mc^26230_R1", "setting": "mc^26230_R1", "result": 100, "unit": "µg/mL"}, {"measurement": "fold increase of MIC in the KatG mutated strains versus parental strain", "setting": "mc^26230_R1", "result": 4, "unit": "fold"}, {"measurement": "MIC, mc^26230_R3", "setting": "mc^26230_R3", "result": 100, "unit": "µg/mL"}]}, {"smiles": "O=C1N=C(NNC(=O)c2ccncc2)S/C1=C\\c1ccc(Cl)cc1", "note": "[9n]", "values": [{"measurement": "MIC, mc^26230_R1", "setting": "mc^26230_R1", "result": 100, "unit": "µg/mL"}, {"measurement": "fold increase of MIC in the KatG mutated strains versus parental strain", "setting": "mc^26230_R1", "result": 8, "unit": "fold"}, {"measurement": "MIC, mc^26230_R3", "setting": "mc^26230_R3", "result": 100, "unit": "µg/mL"}, {"measurement": "fold change between the strain harboring the empty plasmid pMV261 and the strain overexpressing InhA", "setting": "[1]", "result": 4, "unit": "fold"}, {"measurement": "MIC", "setting": "[1]", "result": 100, "unit": "µg/mL"}]}, {"smiles": "O=C1N=C(NNC(=O)c2ccncc2)S/C1=C\\c1ccccc1Cl", "note": "[9p]", "values": [{"measurement": "MIC, mc^26230_R1", "setting": "mc^26230_R1", "result": 100, "unit": "µg/mL"}, {"measurement": "fold increase of MIC in the KatG mutated strains versus parental strain", "setting": "mc^26230_R1", "result": 4, "unit": "fold"}, {"measurement": "MIC, mc^26230_R3", "setting": "mc^26230_R3", "result": 100, "unit": "µg/mL"}]}, {"smiles": "NNC(=O)c1ccncc1", "note": "[INH, isoniazid, reference compound]", "values": [{"measurement": "MIC, mc^26230_R1", "setting": "mc^26230_R1", "result": ">10", "unit": "µg/mL"}, {"measurement": "MIC, mc^26230_R3", "setting": "mc^26230_R3", "result": ">10", "unit": "µg/mL"}, {"measurement": "fold change between the strain harboring the empty plasmid pMV261 and the strain overexpressing InhA", "setting": "[1]", "result": 16, "unit": "fold"}, {"measurement": "MIC", "setting": "[1]", "result": 1.25, "unit": "µg/mL"}]}, {"smiles": "CO[C@H]1/C=C/O[C@@]2(C)Oc3c(C)c(O)c4c(O)c(c(/C=N/N5CCN(C)CC5)c(O)c4c3C2=O)NC(=O)/C(C)=C\\C=C\\[C@H](C)[C@H](O)[C@@H](C)[C@@H](O)[C@@H](C)[C@H](OC(C)=O)[C@@H]1C", "note": "[RIF, reference compound]", "values": [{"measurement": "MIC, pMV261_inhA", "setting": "[1]", "result": "unaffected"}, {"measurement": "fold change between the strain harboring the empty plasmid pMV261 and the strain overexpressing InhA", "setting": "[1]", "result": 1, "unit": "fold"}, {"measurement": "MIC", "setting": "[1]", "result": 0.039, "unit": "µg/mL"}]}]}
